Source: PMC8359378 (British Journal of Clinical Pharmacology, 2021)
“Also recorded” adds a separate entry of the source. Marks after values point to notes of the source that are not given here.

Columns and labels:
[1] = system: rabbit abdominal incision bleeding model; conditions: in combination with clopidogrel; cited from earlier work
healthy subjects = experiment: safety and tolerability; format: in vivo, human
[2] = system: FXa, FIXa, FXIIa, FVIIa, thrombin, tPA, urokinase and plasmin; conditions: cited from earlier work
[3] = Part A, single dose 1 mg, fasted
[4] = Part A, single dose 5 mg, fasted
[5] = Part A, single dose 20 mg, fasted
[6] = Part A, single dose 80 mg, fasted
[7] = Part A, single dose 150 mg, fasted
[8] = Part A, single dose 300 mg, fasted
[9] = Part B, 80 mg QD for 14 days, fed
[10] = Part B, 150 mg QD for 14 days, fed
[11] = Part B, 250 mg QD for 14 days, fed

Nc1ccc(-c2nc([C@H]3CCc4cc(-c5cc(Cl)ccc5-n5cnnn5)cc(=O)n43)c(F)[nH]2)c(F)n1 [ONO‐7684]
bleeding risk compared with rivaroxaban [1]: lower bleeding risk than rivaroxaban | treatment‐related TEAE of lethargy (mild), subjects (healthy subjects; Part A, 5 mg group): 16.7% | treatment‐related TEAE of headache (moderate), subjects (healthy subjects; Part A, 300 mg group): 16.7% | Abdominal pain upper TEAE, subjects (healthy subjects; [3]): 0 n (%) | All TEAEs, subjects (healthy subjects; [3]): 0 n (%) | Dizziness TEAE, subjects (healthy subjects; [3]): 0 n (%) | Gonorrhoea TEAE, subjects (healthy subjects; [3]): 0 n (%) | Headache TEAE, subjects (healthy subjects; [3]): 0 n (%) | Lethargy TEAE, subjects (healthy subjects; [3]): 0 n (%) | Nasopharyngitis TEAE, subjects (healthy subjects; [3]): 0 n (%) | Nausea TEAE, subjects (healthy subjects; [3]): 0 n (%) | Pain TEAE, subjects (healthy subjects; [3]): 0 n (%) | Skin laceration TEAE, subjects (healthy subjects; [3]): 0 n (%) | Thrombocytopenia TEAE, subjects (healthy subjects; [3]): 0 n (%) | Abdominal pain upper TEAE, subjects (healthy subjects; [4]): 0 n (%) | All TEAEs, subjects (healthy subjects; [4]): 1 (16.7) n (%) | Dizziness TEAE, subjects (healthy subjects; [4]): 0 n (%) | Gonorrhoea TEAE, subjects (healthy subjects; [4]): 0 n (%) | Headache TEAE, subjects (healthy subjects; [4]): 0 n (%) | Lethargy TEAE, subjects (healthy subjects; [4]): 1 (16.7)^b n (%) | Nasopharyngitis TEAE, subjects (healthy subjects; [4]): 1 (16.7) n (%) | Nausea TEAE, subjects (healthy subjects; [4]): 0 n (%) | Pain TEAE, subjects (healthy subjects; [4]): 0 n (%) | Skin laceration TEAE, subjects (healthy subjects; [4]): 0 n (%) | Thrombocytopenia TEAE, subjects (healthy subjects; [4]): 0 n (%) | Abdominal pain upper TEAE, subjects (healthy subjects; [5]): 1 (16.7) n (%) | All TEAEs, subjects (healthy subjects; [5]): 1 (16.7) n (%) | Dizziness TEAE, subjects (healthy subjects; [5]): 1 (16.7) n (%) | Gonorrhoea TEAE, subjects (healthy subjects; [5]): 0 n (%) | Headache TEAE, subjects (healthy subjects; [5]): 0 n (%) | Lethargy TEAE, subjects (healthy subjects; [5]): 0 n (%) | Nasopharyngitis TEAE, subjects (healthy subjects; [5]): 0 n (%) | Nausea TEAE, subjects (healthy subjects; [5]): 1 (16.7) n (%) | Pain TEAE, subjects (healthy subjects; [5]): 0 n (%) | Skin laceration TEAE, subjects (healthy subjects; [5]): 0 n (%) | Thrombocytopenia TEAE, subjects (healthy subjects; [5]): 0 n (%) | Abdominal pain upper TEAE, subjects (healthy subjects; [6]): 0 n (%) | All TEAEs, subjects (healthy subjects; [6]): 2 (33.3) n (%) | Dizziness TEAE, subjects (healthy subjects; [6]): 0 n (%) | Gonorrhoea TEAE, subjects (healthy subjects; [6]): 1 (16.7) n (%) | Headache TEAE, subjects (healthy subjects; [6]): 1 (16.7) n (%) | Lethargy TEAE, subjects (healthy subjects; [6]): 0 n (%) | Nasopharyngitis TEAE, subjects (healthy subjects; [6]): 0 n (%) | Nausea TEAE, subjects (healthy subjects; [6]): 0 n (%) | Pain TEAE, subjects (healthy subjects; [6]): 0 n (%) | Skin laceration TEAE, subjects (healthy subjects; [6]): 0 n (%) | Thrombocytopenia TEAE, subjects (healthy subjects; [6]): 0 n (%) | Abdominal pain upper TEAE, subjects (healthy subjects; Part A, single dose 80 mg, fed): 0 n (%) | All TEAEs, subjects (healthy subjects; Part A, single dose 80 mg, fed): 1 (16.7) n (%) | Dizziness TEAE, subjects (healthy subjects; Part A, single dose 80 mg, fed): 0 n (%) | Gonorrhoea TEAE, subjects (healthy subjects; Part A, single dose 80 mg, fed): 0 n (%) | Headache TEAE, subjects (healthy subjects; Part A, single dose 80 mg, fed): 1 (16.7) n (%) | Lethargy TEAE, subjects (healthy subjects; Part A, single dose 80 mg, fed): 0 n (%) | Nasopharyngitis TEAE, subjects (healthy subjects; Part A, single dose 80 mg, fed): 0 n (%) | Nausea TEAE, subjects (healthy subjects; Part A, single dose 80 mg, fed): 0 n (%) | Pain TEAE, subjects (healthy subjects; Part A, single dose 80 mg, fed): 0 n (%) | Skin laceration TEAE, subjects (healthy subjects; Part A, single dose 80 mg, fed): 0 n (%) | Thrombocytopenia TEAE, subjects (healthy subjects; Part A, single dose 80 mg, fed): 0 n (%) | Abdominal pain upper TEAE, subjects (healthy subjects; [7]): 0 n (%) | All TEAEs, subjects (healthy subjects; [7]): 0 n (%) | Dizziness TEAE, subjects (healthy subjects; [7]): 0 n (%) | Gonorrhoea TEAE, subjects (healthy subjects; [7]): 0 n (%) | Headache TEAE, subjects (healthy subjects; [7]): 0 n (%) | Lethargy TEAE, subjects (healthy subjects; [7]): 0 n (%) | Nasopharyngitis TEAE, subjects (healthy subjects; [7]): 0 n (%) | Nausea TEAE, subjects (healthy subjects; [7]): 0 n (%) | Pain TEAE, subjects (healthy subjects; [7]): 0 n (%) | Skin laceration TEAE, subjects (healthy subjects; [7]): 0 n (%) | Thrombocytopenia TEAE, subjects (healthy subjects; [7]): 0 n (%) | Abdominal pain upper TEAE, subjects (healthy subjects; [8]): 0 n (%) | All TEAEs, subjects (healthy subjects; [8]): 2 (33.3) n (%) | Dizziness TEAE, subjects (healthy subjects; [8]): 0 n (%) | Gonorrhoea TEAE, subjects (healthy subjects; [8]): 0 n (%) | Headache TEAE, subjects (healthy subjects; [8]): 2 (33.3)^a n (%) | Lethargy TEAE, subjects (healthy subjects; [8]): 0 n (%) | Nasopharyngitis TEAE, subjects (healthy subjects; [8]): 0 n (%) | Nausea TEAE, subjects (healthy subjects; [8]): 0 n (%) | Pain TEAE, subjects (healthy subjects; [8]): 0 n (%) | Skin laceration TEAE, subjects (healthy subjects; [8]): 0 n (%) | Thrombocytopenia TEAE, subjects (healthy subjects; [8]): 1 (16.7) n (%) | All TEAEs, subjects (healthy subjects; [9]): 2 (33.3) n (%) | Bleeding time prolonged TEAE, subjects (healthy subjects; [9]): 0 n (%) | Dizziness TEAE, subjects (healthy subjects; [9]): 1 (16.7) n (%) | Headache TEAE, subjects (healthy subjects; [9]): 1 (16.7) n (%) | Muscle twitching TEAE, subjects (healthy subjects; [9]): 1 (16.7) n (%) | All TEAEs, subjects (healthy subjects; [10]): No TEAEs | Bleeding time prolonged TEAE, subjects (healthy subjects; [10]): 0 n (%) | Dizziness TEAE, subjects (healthy subjects; [10]): 0 n (%) | Headache TEAE, subjects (healthy subjects; [10]): 0 n (%) | Muscle twitching TEAE, subjects (healthy subjects; [10]): 0 n (%) | All TEAEs, subjects (healthy subjects; Part B, 150 mg QD for 14 days, fed, listed as ONO 7684): 0 n (%) | All TEAEs, subjects (healthy subjects; [11]): No TEAEs | Bleeding time prolonged TEAE, subjects (healthy subjects; [11]): 0 n (%) | Dizziness TEAE, subjects (healthy subjects; [11]): 0 n (%) | Headache TEAE, subjects (healthy subjects; [11]): 0 n (%) | Muscle twitching TEAE, subjects (healthy subjects; [11]): 0 n (%) | All TEAEs, subjects (healthy subjects; Part B, 250 mg QD for 14 days, fed, listed as ONO 7684): 0 n (%) | bleeding risk (healthy subjects; Parts A and B): no evidence to suggest a bleeding risk; also recorded: no evidence of a bleeding risk | severe or serious TEAEs, TEAEs leading to discontinuation (healthy subjects; Parts A and B): no severe or serious TEAEs | tolerability (healthy subjects; all dose levels, single and repeated doses): well tolerated at all dose levels tested | selectivity for FXIa relative to other coagulation/fibrinolysis factors [2]: highly selective for FXIa
